This is an account of results in US20160289640A1, “MTOR/STAT3 SIGNAL INHIBITOR-TREATED MESENCHYMAL STEM CELL HAVING IMMUNOMODULATORY ACTIVITY, AND CELL THERAPY COMPOSITION COMPRISING SAME, FOR PREVENTING OR TREATING IMMUNE DISORDERS” (THE CATHOLIC UNIVERSITY OF KOREA INDUSTRY-ACADEMIC …, priority 2013, published 2016).

The subject of test [1] is adipose tissue-derived mesenchymal stem cells. The test is described as follows: Cell migration kit analysis (upper/lower chamber, polycarbonate membrane). The format is cell-based, human. On the procedure: For the confirmation of cell migration of the mesenchymal stem cells treated with rapamycin (10 ng/mL), the cells were analyzed using a cell migration kit (Chemicon, Temecula, Calif.). That is, a group with CD4+T cells alone, a group treated with CD4+T cells and rapamycin (10 ng/mL), and a group treated with SDF-1 cells and CD4+T cells were added into the lower chamber, respectively, and the mesenchymal stem cells were added into the upper chamber. Then, for the migration of the adipose tissue-derived mesenchymal stem cells added into the upper chamber into the lower chamber, the cells passed through a polycarbonate membrane were stained and their number was observed by counting.

The subject of test [2] is adipose tissue-derived mesenchymal stem cell. The test is described as follows: Real-time PCR of cell migration markers. Particulars: 50 nM rapamycin, vs group not treated. In kind it is cell-based, human. On the procedure: In order to confirm whether adipose tissue-derived mesenchymal stem cell treated with 50 nM rapamycin can migrate into a lesion area due to their cell migration capability, the present inventors analyzed the expression levels of CCR1, CCR2, CCR3, CCR4, CCR7, CCR9, and CXCR4, which are factors associated with the migration of mesenchymal stem cells, via real-time PCR.
In general terms: Real-time PCR tracks product formation cycle by cycle.

The subject of test [3] is adipose tissue-derived mesenchymal stem cells. The test is described as follows: Real-time PCR of autophagy factor markers. The format is cell-based, human. Particulars: 10 ng/mL rapamycin, 12 hours, vs group not treated. The procedure:
The adipose tissue-derived mesenchymal stem cells isolated and cultured in Example 1 were treated with 10 ng/mL rapamycin, and 12 hours later, the cells were collected and the total RNA was obtained therefrom. Then, cDNA Synthesis Kit (Roche, Transcriptor First Strand cDNA Synthesis Kit) was prepared based on the RNA. Then, the expression levels of ATG5, LC3A, and LC3B genes, which are autophagy factor markers, were analyzed via real-time PCR using the thus-synthesized cDNA.

In test [4] the test system is mesenchymal stem cells. The test is described as follows: Flow cytometry of cell phenotype CD markers in rapamycin-treated mesenchymal stem cells. The format is cell-based. The procedure: The mesenchymal stem cells isolated and cultured in <Example 1> were treated with rapamycin, respectively, and the phenotypes of the mesenchymal stem cells were analyzed. In particular, the mesenchymal stem cells not treated with rapamycin were used as a control, and the expression level of cell markers in the rapamycin-treated mesenchymal stem cells were analyzed via flow cytometry.
(In general: A flow cytometer gives signals particle by particle.)

The subject of test [5] is mTOR signaling pathway in human adipose tissue-derived mesenchymal stem cells. The test is described as follows: Western blot analysis of mTOR signaling pathway and autophagy proteins. The format is cell-based. On the procedure: The present inventors, in furtherance with the result of <6-1>, performed western blot analysis to examine whether mTOR signaling pathway can be controlled by rapamycin, in the rapamycin-treated mesenchymal stem cells. For this purpose, human adipose tissue-derived mesenchymal stem cells were treated with 10 ng/mL rapamycin, and 1 hour later, the cells were lysed and proteins were extracted therefrom. Then, the extracted proteins were subjected to SDS-PAGE electrophoresis, electrically transferred to a nitrocellulose membrane, blocked with 5% skim milk for 1 hour, reacted by attaching primary antibodies to Beclin1, ATG5, ATG7, LC3I, LC3II, Phospho-mTOR, mTOR, Rictor, and Ractor, and then reacted by attaching secondary antibodies thereto, and photosensitized into Kodak X-ray using the Enhanced Chemiluminescence (ECL), and the expression levels of the proteins of these genes were analyzed (FIG. 6c).
(In general: In western blotting, separated proteins are transferred to a membrane and probed.)

Test [6] relates to adipose tissue-derived mesenchymal stem cells. The test can be described thus: Real time PCR of inflammatory factors and tumor factors in rapamycin-treated mesenchymal stem cells. The format is cell-based. Particulars: 100 nM rapamycin, vs group not treated. The procedure:
(§1) The mesenchymal stem cells isolated and cultured in <Example 1> were treated with rapamycin, respectively, and the changes in the expression of High-mobility group protein B1 (HMGB-1), IL-6, and IL-1β, which are genes associated with inflammatory factors and tumor factors. First, in a condition of 60 mm dish, for the adipose tissue-derived mesenchymal stem cells, the mesenchymal stem cells in the amount of 5 ? 10^5 cells which were treated with 100 nM rapamycin and cultured at 37° C. were used. In particular, the mesenchymal stem cells not treated with rapamycin were used as a control, and the expression level of the genes having immunomodulatory activity in rapamycin-treated mesenchymal stem cells was analyzed using a real time PCR method.

Test [7] has as its system mesenchymal stem cells. The test is described as follows: Real time PCR of genes associated with immunomodulatory activity in rapamycin-treated mesenchymal stem cells. The format is cell-based, human. The procedure: as §1, with “IDO, IL-10,” for “High-mobility group protein B1 (HMGB-1), IL-6,”, “TGF-β,” for “IL-1β,”, “immunomodulatory activity.” for “inflammatory factors and tumor factors.”

The subject of test [8] is mesenchymal stem cells derived from human adipose tissue. The test is described as follows: Fluorescence microscope analysis of IL-10 and IDO expression in rapamycin-treated mesenchymal stem cells. Particulars: FIG. 1b. In kind it is cell-based.
The subject of test [9] is mesenchymal stem cells derived from human adipose tissues. The test is described as follows: Formation of autophagic vacuoles observed under electron microscope. Particulars: 50 μM rapamycin. The format is cell-based. The procedure:
Meanwhile, autophagy has the effects capable of controlling the beneficial or harmful effects of immunity and inflammation, and preventing autoimmunity and inflammatory diseases, and thus the rapamycin-treated mesenchymal stem cells of the present invention, due to their autophagy, can be more effectively used for the immunity and treatment of inflammatory diseases. As such, the present inventors treated the mesenchymal stem cells with 50 μM rapamycin and the degree of formation of autophagic vacuoles was observed under electron microscope.

Where [10] appears, read: 10 ng/mL rapamycin, 1 hour, western blot.
Setting [11] is: 100 nM rapamycin, 5x10^5 cells, 37° C., real time PCR, vs group not treated.

“Also recorded” adds a separate entry of the source.

Turning to `CO/C1=C\C(C)=C\[C@@H](C)[C@@H](O)[C@@H](C)C/C(C)=C/C=C/[C@H](OC)[C@@H]([C@@H](C)[C@@H](O)[C@H](C)[C@@]2(O)C[C@@H](O)[C@H](C)[C@@H](C(C)C)O2)OC1=O` [bafilomycin], in test [1] (after treatment with bafilomycin), the “cell migration capability of the rapamycin-treated mesenchymal stem cells” value is recorded as “reduced”.
Take `CO[C@H]1C[C@@H]2CC[C@@H](C)[C@@](O)(O2)C(=O)C(=O)N2CCCC[C@H]2C(=O)O[C@H]([C@H](C)C[C@@H]2CC[C@@H](O)[C@H](OC)C2)CC(=O)[C@H](C)/C=C(\C)[C@@H](O)[C@@H](OC)C(=O)[C@H](C)C[C@H](C)/C=C/C=C/C=C/1C` [rapamycin, (3S,6R,7E,9R,10R,12R,14S,15E,17E,19E,21S,23S,26R,27R,34aS)-9,10,12,13,14,21,22,23,24,25,26,27,32,33,34,34a-hexadecahydro-9,27-dihydroxy-3-[(1R)-2-[(1S,3R,4R)-4-hydroxy-3-methoxycyclohexyl]-1-methylethyl]-10,21-dimethoxy-6,8,12,14,20,26-hexamethyl-23,27-epoxy-3H-pyrido [2,1-c][1,4]-oxaazacyclohentriacontine-1,5,11,28,29 (4H,6H,31H)-pentone]: in [2], the “increase in the expression of CCR1” value was about 115 fold, the “increase in the expression of CCR2” value was about 25 fold, the “increase in the expression of CCR3” value is recorded as about 70 fold and the “increase in the expression of CCR4” value is on record as about 32 fold. In addition, in test [2], the “increase in the expression of CCR7” value was about 200 fold, the “increase in the expression of CCR9” value is about 150 fold and the “increase in the expression of CXCR4” value was about 60 fold. In test [3], the “expression level of ATG5 gene” value is recorded as “significant increase”, the “expression level of LC3A gene” value is “significant increase” and the “expression level of LC3B gene” value is “significant increase”. Also, in the test on mesenchymal stem cells [4], the “expression of CD45 (negative marker)” value is recorded as “negative” and the “expression of HLA-DR (negative marker)” value is on record as “negative”. Moreover, in [5] (setting [10]), the “expression level of ATG5 protein” value is recorded as “increase”, the “expression level of ATG7 protein” value was “increase”, the “expression level of Beclin1 protein” value is reported as “increase” and the “expression level of LC3I protein” value is “increase”. In [5] (setting [10]), the “expression level of LC3II protein” value was “increase” and the “mTOR activation (phosphorylation)” value is on record as “inhibited; also recorded: reduced”. Further, in [5] (rapamycin treatment), the “expression of Ractor” value is given as “decreased” and the “expression of Rictor” value is recorded as “decreased”. In [6], the “expression of HMGB-1” value was “significant decrease”, the “expression of IL-1β” value was “significant decrease” and the “expression of IL-6” value was “significant decrease”. In the test on mesenchymal stem cells [7] (setting [11]), the “increase in the expression of IDO” value was about 5 fold, the “increase in the expression of IL-10” value is about 5 fold and the “increase in the expression of TGF-β” value was about 5 fold. Moreover, the “increase in TGF-β expression” value with mesenchymal stem cells [7] (rapamycin-treated mesenchymal stem cells derived from adipose tissue vs not treated with rapamycin) is on record as about 30 fold. Further, the “migration of mesenchymal stem cells” value in test [1] (CD4+T cells and rapamycin (10 ng/mL), vs mesenchymal stem cells not treated with anything) is “greater migration”. Further, the “expression level of IL-10 cytokine” value in [8] is on record as “significantly increased”. Moreover, in test [9], the “number of autophagic vacuoles” value was “increase”.
